Data reported in ChEMBL document CHEMBL1201862, “PubChem BioAssay data set” (2004).
Activity calls are given as the source filed them.

Key:
[1] = Counterscreen for IDE inhibitors: Luminescence-based cell-based high throughput dose response assay to identify compounds that are cytotoxic to HEK cells. [Related pubchem assays: 434962 (Primary screen (IDE inhibitors in singlicate)), 449730 (Counterscreen (Cytotoxicity in triplicate)), 435028 (Confirmation (IDE inhibitors in triplicate)) …; format: functional; conditions: HEK293
Oxytocin receptor = Oxytocin receptor (Homo sapiens, UniProt P30559); assay: Counterscreen for vasopressin 1 receptor (V1R) agonists: Fluorescence-based cell-based high throughput dose response assay for agonists of the Oxytocin Receptor (OXTR). [Related pubchem assays: 2435 (Primary screen (OXTR agonists in singlicate)), 434964 (Confirmation screen (V1R agonists in triplicate)), 434969 (Counterscreen (OXTR agonists in …; format: functional
Oxytocin receptor, sequence (P30559 whole entry): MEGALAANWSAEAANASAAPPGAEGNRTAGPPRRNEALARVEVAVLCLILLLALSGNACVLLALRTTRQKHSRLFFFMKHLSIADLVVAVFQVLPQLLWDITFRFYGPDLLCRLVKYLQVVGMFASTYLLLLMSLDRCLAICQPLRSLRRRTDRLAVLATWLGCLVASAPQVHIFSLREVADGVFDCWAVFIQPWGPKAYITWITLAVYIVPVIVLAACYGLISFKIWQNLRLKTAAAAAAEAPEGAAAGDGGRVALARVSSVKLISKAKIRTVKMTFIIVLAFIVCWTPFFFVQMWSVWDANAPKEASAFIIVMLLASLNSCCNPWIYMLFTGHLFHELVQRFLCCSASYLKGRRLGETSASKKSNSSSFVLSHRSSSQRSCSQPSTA

Vasopressin V1a receptor = Vasopressin V1a receptor (Homo sapiens, UniProt P37288); assay: Fluorescence-based cell-based high throughput dose response screening assay for agonists of the vasopressin 1 receptor (V1R).; format: functional
Vasopressin V1a receptor, sequence (P37288 whole entry): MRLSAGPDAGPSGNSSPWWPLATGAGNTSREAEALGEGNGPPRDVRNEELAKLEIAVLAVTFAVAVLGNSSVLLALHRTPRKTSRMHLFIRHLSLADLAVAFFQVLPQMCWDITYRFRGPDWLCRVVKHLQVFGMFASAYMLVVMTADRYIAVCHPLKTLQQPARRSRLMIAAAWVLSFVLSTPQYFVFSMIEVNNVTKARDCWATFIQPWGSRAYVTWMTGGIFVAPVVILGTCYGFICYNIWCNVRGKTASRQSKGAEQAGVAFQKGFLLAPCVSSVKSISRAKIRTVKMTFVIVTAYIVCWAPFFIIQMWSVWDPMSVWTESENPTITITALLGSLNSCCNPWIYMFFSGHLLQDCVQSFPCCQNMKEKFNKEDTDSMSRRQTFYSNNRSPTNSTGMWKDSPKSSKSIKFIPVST

Insulin-degrading enzyme = target: T1, Insulin-degrading enzyme (Homo sapiens, UniProt P14735); assay: Dose Response: Fluorescence polarization-based cell-based high throughput dose response assay for inhibitors of insulin-degrading enzyme (IDE). [Related pubchem assays: 434962 (Primary screen (IDE inhibitors in singlicate)), 449730 (Counterscreen (Cytotoxicity in triplicate)), 435028 (Confirmation (IDE inhibitors in triplicate)), 434984 (Summary …; format: functional
T1 sequence (P14735 whole entry): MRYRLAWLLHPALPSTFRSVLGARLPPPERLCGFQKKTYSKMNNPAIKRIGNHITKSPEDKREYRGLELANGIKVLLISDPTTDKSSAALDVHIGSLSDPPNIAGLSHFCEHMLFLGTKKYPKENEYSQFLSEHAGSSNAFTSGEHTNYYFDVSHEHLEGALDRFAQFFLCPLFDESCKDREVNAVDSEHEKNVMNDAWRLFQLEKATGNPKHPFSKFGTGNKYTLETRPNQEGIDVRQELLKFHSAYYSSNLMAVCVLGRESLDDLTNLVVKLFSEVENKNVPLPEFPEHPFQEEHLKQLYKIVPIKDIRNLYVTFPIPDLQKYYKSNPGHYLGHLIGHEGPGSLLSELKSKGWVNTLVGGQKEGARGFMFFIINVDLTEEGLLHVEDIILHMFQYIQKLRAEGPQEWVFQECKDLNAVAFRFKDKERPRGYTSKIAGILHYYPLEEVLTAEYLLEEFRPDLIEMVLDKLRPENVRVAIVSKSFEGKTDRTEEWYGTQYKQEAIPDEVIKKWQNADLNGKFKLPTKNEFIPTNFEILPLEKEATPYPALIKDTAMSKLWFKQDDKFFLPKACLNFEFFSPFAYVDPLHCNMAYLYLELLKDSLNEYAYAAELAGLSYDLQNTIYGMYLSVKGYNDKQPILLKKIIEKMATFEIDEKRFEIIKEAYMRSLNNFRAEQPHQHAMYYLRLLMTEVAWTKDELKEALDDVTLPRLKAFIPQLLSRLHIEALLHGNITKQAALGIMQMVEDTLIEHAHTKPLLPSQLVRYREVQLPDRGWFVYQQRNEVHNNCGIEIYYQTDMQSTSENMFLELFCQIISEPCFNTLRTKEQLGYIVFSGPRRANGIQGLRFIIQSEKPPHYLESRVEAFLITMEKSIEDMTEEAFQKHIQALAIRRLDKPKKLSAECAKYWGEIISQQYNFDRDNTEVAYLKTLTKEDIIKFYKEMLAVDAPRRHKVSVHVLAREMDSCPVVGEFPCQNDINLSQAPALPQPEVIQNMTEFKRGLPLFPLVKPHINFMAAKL

[2] = target: T2, Mannose-6-phosphate isomerase (Homo sapiens, UniProt P34949); assay: MPI enzyme activity inhibition – biochemical, fluorescence intensity, coupled assay, primary screen (AID 1209)
T2 sequence (P34949 whole entry): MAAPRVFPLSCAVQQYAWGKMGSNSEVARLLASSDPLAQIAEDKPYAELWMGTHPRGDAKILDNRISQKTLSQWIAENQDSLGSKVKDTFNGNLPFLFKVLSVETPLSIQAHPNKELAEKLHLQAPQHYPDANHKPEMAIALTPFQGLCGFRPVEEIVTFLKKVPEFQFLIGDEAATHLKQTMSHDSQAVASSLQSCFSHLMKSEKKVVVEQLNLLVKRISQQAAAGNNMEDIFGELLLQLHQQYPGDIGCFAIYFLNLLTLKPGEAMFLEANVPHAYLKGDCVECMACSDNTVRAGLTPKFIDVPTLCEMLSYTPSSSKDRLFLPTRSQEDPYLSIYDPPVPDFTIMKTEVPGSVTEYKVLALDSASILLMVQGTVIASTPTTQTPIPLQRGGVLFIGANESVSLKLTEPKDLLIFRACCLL

[3] = target: T2, Mannose-6-phosphate isomerase; assay: MPI inhibition at elevated mannose 6-phosphate – biochemical, fluorescence intensity, high mannose 6-phosphate, primary screen (AID 1220)
[4] = target: Eukaryotic translation initiation factor 4E (Mus musculus, UniProt P63073); assay: blockers of eIF4G binding by eIF4E – biochemical, TR-FRET, dose response (AID 855); format: functional;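 also: potency for disrupting eIF4E binding to eIF4GI seen as loss of FRET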
Eukaryotic translation initiation factor 4E, sequence (P63073 whole entry): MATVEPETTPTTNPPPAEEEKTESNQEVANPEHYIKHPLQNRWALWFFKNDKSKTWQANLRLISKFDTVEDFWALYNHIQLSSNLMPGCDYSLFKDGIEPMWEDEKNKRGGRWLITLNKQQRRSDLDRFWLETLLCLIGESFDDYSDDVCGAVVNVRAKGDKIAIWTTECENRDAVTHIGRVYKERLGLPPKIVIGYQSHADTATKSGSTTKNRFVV

[5] = target: DNA dC->dU-editing enzyme APOBEC-3G (Homo sapiens, UniProt Q9HC16); assay: Dose Response confirmation of small molecule APOBEC3G DNA Deaminase Inhibitors via a fluorescence-based single-stranded DNA deaminase assay. [Related pubchem assays (depositor defined):AID493012, AID493028]; format: functional
DNA dC->dU-editing enzyme APOBEC-3G, sequence (Q9HC16 whole entry): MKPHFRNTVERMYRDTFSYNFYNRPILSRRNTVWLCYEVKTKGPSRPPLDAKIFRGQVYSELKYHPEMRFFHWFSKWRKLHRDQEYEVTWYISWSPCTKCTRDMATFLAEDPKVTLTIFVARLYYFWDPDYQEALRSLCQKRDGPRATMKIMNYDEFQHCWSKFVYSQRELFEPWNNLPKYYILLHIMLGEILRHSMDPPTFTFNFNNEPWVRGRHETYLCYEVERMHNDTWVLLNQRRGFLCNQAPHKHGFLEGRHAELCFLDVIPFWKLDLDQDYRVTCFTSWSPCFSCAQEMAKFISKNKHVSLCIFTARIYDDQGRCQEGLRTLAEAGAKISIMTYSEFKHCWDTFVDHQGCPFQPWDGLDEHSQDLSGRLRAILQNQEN

[6] = target: T3, Lysine-specific demethylase 4C (Homo sapiens, UniProt Q9H3R0); assay: inhibition of JMJD2C H3K9me3 demethylation – biochemical, DELFIA europium, cherry-picked samples, dose response (AID 488835); format: functional
T3 sequence (Q9H3R0 whole entry): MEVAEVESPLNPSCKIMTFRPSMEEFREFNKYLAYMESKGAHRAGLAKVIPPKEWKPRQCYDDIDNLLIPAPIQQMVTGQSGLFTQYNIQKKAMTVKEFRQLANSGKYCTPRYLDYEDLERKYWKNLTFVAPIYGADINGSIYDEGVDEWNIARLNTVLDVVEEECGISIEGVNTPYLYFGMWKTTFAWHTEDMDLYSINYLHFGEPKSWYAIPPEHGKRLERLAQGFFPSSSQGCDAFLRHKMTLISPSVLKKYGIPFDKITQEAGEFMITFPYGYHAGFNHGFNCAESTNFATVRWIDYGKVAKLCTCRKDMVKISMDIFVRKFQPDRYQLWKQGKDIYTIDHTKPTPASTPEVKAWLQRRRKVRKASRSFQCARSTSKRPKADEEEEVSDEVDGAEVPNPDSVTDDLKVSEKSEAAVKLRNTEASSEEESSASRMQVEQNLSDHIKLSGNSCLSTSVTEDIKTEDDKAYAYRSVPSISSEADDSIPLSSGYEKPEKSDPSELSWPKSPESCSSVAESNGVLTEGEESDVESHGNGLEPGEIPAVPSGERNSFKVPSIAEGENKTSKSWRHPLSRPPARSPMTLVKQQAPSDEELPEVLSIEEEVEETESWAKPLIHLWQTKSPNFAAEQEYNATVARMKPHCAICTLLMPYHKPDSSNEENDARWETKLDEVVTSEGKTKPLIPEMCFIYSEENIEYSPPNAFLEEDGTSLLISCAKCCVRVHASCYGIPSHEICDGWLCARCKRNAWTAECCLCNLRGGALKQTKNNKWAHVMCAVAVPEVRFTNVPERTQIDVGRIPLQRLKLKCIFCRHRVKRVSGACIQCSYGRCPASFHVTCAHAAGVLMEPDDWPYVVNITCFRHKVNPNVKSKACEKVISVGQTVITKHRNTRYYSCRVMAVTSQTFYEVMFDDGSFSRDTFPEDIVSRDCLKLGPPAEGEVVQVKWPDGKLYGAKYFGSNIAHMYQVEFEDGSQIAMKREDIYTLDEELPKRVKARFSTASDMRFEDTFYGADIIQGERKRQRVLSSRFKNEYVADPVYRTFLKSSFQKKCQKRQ

Bcl-2-like protein 10 = target: T4, Bcl-2-like protein 10 (Homo sapiens, UniProt Q9HD36); assay: Bcl-B/TR3 peptide binding disruption – biochemical, fluorescence polarization, FITC-TR3 peptide, selectivity assay for Bfl-1 inhibitor project, primary screen (AID 748);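 also: fluorescence polarization from a fluorescein-labelled TR3 peptide binding purified Bcl-B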
T4 sequence (Q9HD36 whole entry): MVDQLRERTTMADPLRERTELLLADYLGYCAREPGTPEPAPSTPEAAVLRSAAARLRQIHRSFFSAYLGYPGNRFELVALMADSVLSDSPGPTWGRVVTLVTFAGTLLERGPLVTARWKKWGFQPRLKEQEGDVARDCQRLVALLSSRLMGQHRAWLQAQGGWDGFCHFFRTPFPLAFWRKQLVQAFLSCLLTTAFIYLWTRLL

Estrogen receptor = target: T5, Estrogen receptor (Homo sapiens, UniProt P03372);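 also: potency for inhibiting coactivator peptide recruitment to the receptor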
T5 sequence (P03372 whole entry): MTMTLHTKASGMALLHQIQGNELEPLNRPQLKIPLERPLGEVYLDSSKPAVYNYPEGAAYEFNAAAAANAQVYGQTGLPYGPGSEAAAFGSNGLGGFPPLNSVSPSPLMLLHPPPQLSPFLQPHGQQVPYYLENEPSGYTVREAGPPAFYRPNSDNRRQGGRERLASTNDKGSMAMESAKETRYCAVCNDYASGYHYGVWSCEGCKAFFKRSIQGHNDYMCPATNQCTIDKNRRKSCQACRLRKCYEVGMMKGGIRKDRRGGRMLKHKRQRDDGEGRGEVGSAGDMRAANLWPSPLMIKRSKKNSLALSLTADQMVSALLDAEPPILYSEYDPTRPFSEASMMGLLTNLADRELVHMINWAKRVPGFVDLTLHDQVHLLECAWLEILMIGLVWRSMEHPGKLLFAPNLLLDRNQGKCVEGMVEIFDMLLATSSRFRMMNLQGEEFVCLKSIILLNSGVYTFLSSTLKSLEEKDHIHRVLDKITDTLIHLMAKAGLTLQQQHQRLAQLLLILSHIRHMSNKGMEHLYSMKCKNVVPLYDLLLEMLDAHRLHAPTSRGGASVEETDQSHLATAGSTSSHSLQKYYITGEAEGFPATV

For `CC(OC(=O)/C(C#N)=C/c1ccc(N(C)C)cc1)C(=O)N(C)Cc1ccccc1` (stereo unspecified), the IC50 [1] was 16.5 µM (not active), the EC50 (Oxytocin receptor) was > 9.97 µM (active) and the EC50 (Vasopressin V1a receptor) was > 3.32 µM (active). For the same molecule, the IC50 (Insulin-degrading enzyme) was 12.8 µM (not active).

With `COc1ccc(/N=c2\ssnc2Cl)cc1` the IC50 [2] was 14.4 µM (active), the IC50 [3] was 21.6 µM (active) and the IC50 [4] was 43.2 µM (inactive). The IC50 [5] was 9.96 µM (active) and the AC50 [6] was 39.1 µM (active).

In the case of `CCOC(=O)C1=C(C)S/C(=C\N(C)C)C1=O`, the IC50 (Bcl-2-like protein 10) is reported as 37.8 µM (active) and the IC50 (Estrogen receptor) is reported as 40.3 µM (not active).
